The values below come from patent US12285408B2, “Methods and compositions for the treatment of snake bite” (priority 2021, dated 2025).

The subject of data set [1] is SVMP activity of E. ocellatus, E. carinatus, B. asper and B. arietans venoms. Description: In vitro kinetic fluorogenic SVMP assay (Study 2). It is filed as biochemical. An excerpt:
FIG. 10. […] (A) SVMP activities of the five viper venoms quantified by fluorogenic assay. The data presented represent mean measurements and SEMs of area under the curves of fluorescent arbitrary units taken from three independent experimental runs. EOC, E. ocellatus; ECAR, E. carinatus; BAS, Bothrops asper, BAR, Bitis arietans; DRUS, Daboia russelii. (B) The effectiveness of metal chelators and peptidomimetic hydroxamate inhibitors at inhibiting the SVMP activity of the various viper venoms. Drug concentrations from 150 μM to 150 nM (highest to lowest dose tested) are presented. The data is expressed as percentage of the venom-only sample (100%, top dashed line). The negative control is presented as an interval (bottom dashed lines) and represents the values recorded in the PBS-only samples (expressed as percentage of venom activity), where the highest and the lowest values in each set of independent experiments are depicted. […] All data represent triplicate independent repeats with SEMs, where each technical repeat represents the mean of n≥2 technical replicates.
We used an in vitro kinetic fluorogenic assay^28 to assess the SVMP bioactivity of each venom and its inhibition by varying concentrations of the four SVMP-inhibitors.
The SVMP assay measuring metalloproteinase activity and the plasma assay measuring coagulation in the presence or absence of venoms and inhibitors were performed as previously described^28. The SVMP assay kinetically measured cleavage of a quenched fluorogenic substrate (ES010, R&D Biosystems) by venom in the presence or absence of inhibitors.
Briefly, 10 μl of the substrate (supplied as a 6.2 mM stock) was used per 5 ml reaction buffer (150 mM NaCl, 50 mM Tris-CI pH 7.5). Reactions consisted of 10 μl of venom±inhibitors in PBS and 90 μl of substrate. Venoms were used at 1 μg/reaction and final inhibitor concentrations ranged from 150 μM to 150 nM. Samples were preincubated for 30 min at 37° C. and pipetted in triplicate into 384-well plates (Greiner). Thereafter, data was collected on an Omega FLUOstar (BMG Labtech) instrument at an excitation wavelength of 320 nm and emission wavelength of 405 nm at 25° C. for 1 h. The areas under the curve (AUCs) in the 0-40 min interval were calculated for each sample using MARS data analysis software v3.31 (BMG Labtech); this time point was chosen as the time where all fluorescence curves had reached a plateau (maximum fluorescence). For comparing venom-only samples, the means of at least three independent experimental runs for each condition, expressed as AUCs (n≥3), were plotted at each inhibitor concentration with standard error of the mean (SEM). To determine inhibitor efficacy, the AUCs for each of the samples that consisted of venom+inhibitors were transformed and expressed as percentages of the venom-only sample (where the venom was 100%). The negative control (PBS only) was also expressed relative to the venom, and the variation in background was presented as an interval delineated by the lowest and highest values in the PBS-only samples across concentrations and inhibitors for a specific venom. […] However, only the latter two concentrations were sufficiently depleted of DMSO for viable use in the assay.

In data set [2] the test system is procoagulant activities of viper venoms (E. ocellatus, E. carinatus, B. asper, D. russelii). Description: Plasma clotting assay, neutralization of procoagulant venom activity. Particulars: range across all venoms, 100 ng venom, bovine plasma; read-out: IC50, inhibition of procoagulant activity. It is filed as biochemical. An excerpt: FIG. 11. SVMP-inhibitors neutralize the in vitro procoagulant activities of several geographically distinct viper venoms. […] The data presented represents the maximum clotting velocity, calculated as the maximum of the first derivative of each clotting curve, from triplicate independent repeat experiments with SEMs, where each technical repeat represents the mean of n≥2 technical replicates. EOC, E. ocellatus; ECAR, E. carinatus; BAS, Bothrops asper, BAR, Bitis arietans; DRUS, Daboia russelii. (B) Neutralization of procoagulant venom activity by four SVMP-inhibitors across four drug concentrations (150 μM to 150 nM). The data is expressed as the maximum clotting velocity at each dose. The negative (PBS) and positive (venom-only) controls are presented as intervals (bottom dashed and top dashed lines, respectively), with the latter representing the mean maximum clotting velocity in these samples±SEM. The data represent triplicate independent repeats with SEMs, where each technical repeat represents the mean of n≥2 technical replicates. Note the different y-axis scales.
Since SVMPs are key toxins associated with causing coagulopathy, we next investigated whether the same peptidomimetic and metal chelating inhibitors could also neutralize the procoagulant bioactivities of viper venoms. To do so, we used a validated kinetic absorbance-based assay monitoring plasma clotting^35 in the presence or absence of venoms and inhibitors (FIG. 11).
(§1) We used a previously developed plasma clotting assay^35 to measure venom-induced coagulation. Briefly, 100 ng of each venom was incubated at 37° C. for 30 min in the presence or absence of inhibitors (150 μM to 150 nM final concentrations). The final reaction consisted of 10 μl venom±inhibitors in PBS, 20 μl 20 mM CaCl2), and 20 μl citrated bovine plasma (VWR). The samples were pipetted in triplicate into 384-well plates, and absorbance monitored at 595 nm for 2 h at 25° C. on an Omega FLUOstar instrument. We calculated the maximum clotting velocity of each of the curves as per clot waveform analysis^67, by calculating the maximum of the first derivative. The means of at least three independent experimental runs for each condition were plotted at each inhibitor concentration with SEMs.

The conditions of data set [3]: in vivo; cited from earlier work.
Data set [4] deals with normal plasma clotting. Kind of data set: Normal plasma clotting in the absence of venom. The following applies: 150 μM, no venom. It is filed as biochemical, bovine. On the procedure: FIG. 14. The serine protease-inhibitor nafamostat inhibits normal plasma clotting. Comparison of normal clotting (i.e. in the absence of venom and inhibitors via recalcification) and clotting in the presence of the generic serine protease-inhibitor nafamostat. […] The anticoagulant effect of this drug is expressed as a percentage of the plasma-only activity.
as §1

The test system of data set [5] is Echis ocellatus venom. Kind of data set: Murine preincubation (co-incubation) model of venom lethality, intravenous, with TAT ELISA. The data set is classed as in vivo, CD-1 mice. Particulars: 45 μg venom (2.5×LD50) preincubated 30 min at 37° C. with 60 μg of each drug, i.v., 6 h monitoring, n=5. As to the method:
The intravenous median lethal dose (venom LD50) for E. ocellatus (Nigeria) of 17.85 μg per mouse was previously determined. Mice were challenged with 45 μg of E. ocellatus venom (2.5×the intravenous LD50 dose) in a refined version of the World Health Organization-recommended antivenom efficacy experiments. Groups of five male 18-22 g CD-1 mice (Charles River, UK) received experimental doses that consisted of either (a) venom only (2.5×LD50 dose), (b) venom and drug (60 μg) or (c) drug only. All experimental doses were prepared to a volume of 200 μl in PBS and incubated at 37° C. for 30 mins prior to their intravenous injection via the tail vein. Animals were monitored for 6 hours and euthanized upon observation of humane endpoints (seizure, pulmonary distress, paralysis, hemorrhage). Deaths, time of death, and survivors were recorded; where “deaths/time of death” represents the implementation of euthanasia based on the defined humane endpoints.
The same murine preincubation model was used to assess the efficacy of distinct toxin family inhibiting drugs in comparison with a drug combination. […] All experimental doses were prepared to a volume of 200 μl in PBS and incubated at 37° C. for 30 min prior to their intravenous injection via the tail vein. Animals were monitored for 6 h, and euthanized via rising concentrations of CO2 upon observation of previously defined humane end points that are predicators of lethality (e.g., seizure, pulmonary distress, paralysis, hemorrhage). Deaths, time of death, and survivors were recorded; where death/time of death represents the implementation of euthanasia based on defined humane end points.
Strong drug hits, those defined as inhibiting >80% of the venom activity in the previously described in vitro metalloproteinase assay (FIG. 1), were next progressed into murine preclinical efficacy studies, to assess their ability to prevent venom-induced lethality in vivo. We used an established in vivo model of envenoming to test the efficacy of the seven snake venom metalloproteinase toxin inhibitors identified. This model consisted of the preincubation of the test drug with venom, followed by intravenous injection of the mixture into groups of five male CD-1 mice (18-20 g) via the tail vein followed by 6 hour monitoring, and is based on principles laid out in the gold standard method of preclinical efficacy recommended by the World Health Organization.
We used an established in vivo model of envenoming^41,42 to test the efficacy of small molecule toxin inhibitors. […]
(In general: In an ELISA, binding on a coated surface is turned into a signal by an enzyme label.)

The subject of data set [6] is SVSP activity of viper venoms. Kind of data set: Chromogenic SVSP (serine protease) assay. It is filed as biochemical. An excerpt:
FIG. 13. Nafamostat inhibits the in vitro serine protease activities of several geographically distinct viper venoms. (A) The serine protease (SVSP) activity of five viper venoms expressed as the rate (ΔAbs/time/μg venom) of substrate consumption determined by kinetic chromogenic assay. The data represents triplicate independent repeats with SEMs, where each technical repeat represents the mean of n≥2 technical replicates. EOC, E. ocellatus; ECAR, E. carinatus; BAS, Bothrops asper, BAR, Bitis arietans; DRUS, Daboia russelii. (B) Neutralization of SVSP venom activity by the serine protease-inhibitor nafamostat. The data is expressed as rates (ΔAbs/time/μg venom) and represents triplicate independent repeats with SEMs, where each technical repeat represents the mean of n≥2 technical replicates. […] Note the different y-axis scales.
SVSP activity was measured using a chromogenic substrate (S-2288, Cambridge Bioscience). […] The samples were pipetted in triplicate into 384-well plates (Greiner) and absorbance at 405 nm was monitored kinetically for ˜30 min on an Omega FLUOstar instrument (BMG Labtech). Given the linearity of the resulting slopes, negative control readings (PBS) were subtracted from each reading and the rate of substrate consumption calculated by measuring the slope between 0 and 5 mins. […]

Consider `OCC(S)CS` (centres unmarked) [dimercaprol, 2,3-dimercapto-1-propanol], for which, in data set [1] (concentrations tested 150 μM to 150 nM), the “lowest concentration effective / required to fully inhibit SVMP activities” value was found to be 1.5 µM. Moreover, the IC50 was 0.02 to 0.4 µM in data set [1] (range across venoms, 1 μg venom/reaction, read-out: IC50s, inhibition of SVMP activity) and 0.15 to 3.7 µM in data set [2].
In the case of `N=C(N)c1ccc2cc(OC(=O)c3ccc(N=C(N)N)cc3)ccc2c1` [nafamostat], in data set [3], the half-life is roughly 8 min. For the same molecule, in data set [4], the “effect on normal plasma clotting” value is “dramatically inhibits plasma coagulation”. In data set [5], the “survival / protection against venom-induced lethality” value was “no evident efficacy”. In addition, the “inhibition of SVSP activity” value in data set [6] (highest doses 150 and 15 μM, irrespective of venom) is listed as “completely inhibiting SVSP activity”. Also, the IC50 in data set [6] (range across venoms, 1 μg venom/reaction, read-out: IC50s, inhibition of SVSP activity) was 0.12 to 1.07 µM.

As a reminder, the half-life is how long it takes for the measured level to halve.
